# Measured values reported in patent US12492403B2, “Aptamers and the use thereof in the treatment of cancer” (FUNDACIÓN PARA LA INVESTIGACIÓN BIOMÉDICA DEL HOSPITAL …, priority 2018, dated 2025).
# Columns and labels:
# [1] = test system: MCF7, MDA-MB-231, and MDA-MB-468 cells; assay: MTT activity after direct addition of aptamer (no transfectant); format: cell-based, human; conditions: direct addition without transfectant, highest tested concentration (0.5, 1, and 2 μM tested), 48 hours
# Protocol: FIG. 17. MTT activity measurement in breast lines after the direct addition of apMNKQ2. MCF7, MDA-MB-231, and MDA-MB-468 cells were seeded in 96-well plates at a density of 10^4 cells/well, and apMNKQ2 was added at concentrations of 0.5, 1, and 2 μM at 24 hours. MTT assays were performed after 48 hours. The graphs represent the mean of 3 independent experiments, and are normalized with respect to the control of the untreated cells.
# MTT activity. The cells were seeded in 96-well plates and after having been transfected, the culture medium was removed and 100 μL/well of MTT at 1 mg/ml in culture medium were added. The plates were incubated for 90 minutes in an incubator with a moisture-saturated environment at 37° C. and 5% CO2/[…] and 100 μL/well of a lysis solution (10% SDS and 10 mM HCl) were added for dissolving the crystals. After 48 hours, the reduction of MTT was determined by means of spectrophotometry in Infinite F200 (TECAN, Switzerland) at 540 nm.
# The signal of the aptamer with lipofectamine (FIG. 16B) is more intense and less scattered than when the aptamer enters directly (FIG. 16A). The difference is more evident in the aggregates co-localized in the nucleus. […]
# 4T1 cells = assay: Transwell invasion assay in 4T1 cells; format: cell-based, mouse; conditions: 500 nM, 48 h invasion
# Protocol: FIG. 21A-21E. In vivo efficacy of apMNKQ2 in a mouse metastatic model with an orthotopic xenograft of 4T1 cells. (A) Effect of apMNKQ2 aptamer on the proliferation of 4T1 cells (mouse breast tumor line). 4T1 cells were seeded in p96 at a density of 1.5×10^3 cells/well. […] The graph (FIG. 21A) represents the means±SEM of 3 independent experiments. (B) Effect of apMNKQ2 aptamer on migration and invasion of 4T1 cells. Cells were seeded in p6 at a density of 2×10^5 cells/well and transfected with 500 nM apMNKQ2 at 24 hours. […] At 24 hours (migration) or 48 h (invasion), the transwell membranes were stained with Hoechst and the cells that had passed through the fluorescence microscopy were quantified. […] The number of metastases is analyzed by the reverse staining method (with Chinese ink) and the metastases grouped according to their size in four groups (0.5, 1, 2 and >2). […]
# Cell migration and invasion assays were performed using transwell (Corning, USA). […] After that time, they were collected, counted, and reseeded 4×10^4 cells in 300 μl of a serum-free complete medium inside the transwell (migration) or a transwell on which a layer of 100 μL of Matrigel (Corning, USA) (invasion) had previously been polymerized. […] Finally, two washes in PBS were performed, and 5 photographs of each membrane of the transwell were taken using a fluorescence microscope (Olympus IX70). […]
# ribosomal protein S6 = assay: Western blot of phosphorylation, combined therapy study; format: cell-based, human; conditions: MDA-MB-231 and MCF7 cells, 24 hours
# Protocol: (§1) FIG. 22A & 22B. Combined therapy studies of apMNKQ2 and everolimus. […] The different antibodies used are indicated.
# (§2) Seventy-two hours after treatment, MTT activity was measured.
# AKT = assay: as above; format: cell-based, human; conditions: MDA-MB-231 and MCF7 cells, 24 hours
# Protocol: as §1, §2
# eIF4E = assay: as above; format: cell-based, human; conditions: MDA-MB-231 and MCF7 cells, 24 hours
# Protocol: as §1, §2
# caspase 3 = assay: Caspase 3 activity by western blot of PARP and α-spectrin fragments; format: cell-based, human; conditions: MCF7, MDA-MB-231, and MDA-MB-468 cells, 24 hours post-transfection
# Text: FIGS. 11A & 11B. Effect of apMNKQ2 on caspase 3 activity by means of PARP and α-spectrin substrates in breast cell lines. Immunodetection with specific antibodies by means of 12% SDS-PAGE of “cleaved” PARP (FIG. 11A) and α-spectrin (FIG. 11B) for detecting the proteolytic activity of caspase 3 after the transfection of lines MCF7, MDA-MB-231, and MDA-MB-468 with apMNKQ2 and the control aptamer AT. The activity of this protease gives rise to characteristic proteolysis patterns with specific fragments of 89 kDa for PARP and 150 and 120 kDa for α-spectrin.
# Caspase 3 activity was assessed by means of western blot with two endogenous substrates of this protein: • the enzyme poly ADP-ribose (PARP), fractionated in late apoptotic stages, using a specific antibody that only recognizes the PARP fragment processed by caspase 3. • the protein α-spectrin, with an antibody capable of recognizing the complete form and the fragments obtained after being broken down by caspase 3. Colony Formation Assays
# Similarly, to verify that apMNKQ2 is capable of increasing apoptosis in the cell lines, the activity of caspase 3, a protease activated in apoptosis, was assessed. The western blot study was performed on two endogenous substrates of caspase 3: the enzyme poly ADP-ribose (PARP), fractionated in late apoptotic stages, and the protein α-spectrin. […]
substance,measurement,setting,value
"5′TGGGGTGGGCGGGCGGGGGTGGGGGTGGT-3′ (DNA, backbone and methylation of C not given here; further chemistry not fully specified) [apMNKQ2]",reduction of MTT activity,[1],15%
same,invasion of 4T1 cells,4T1 cells,significantly decrease
same,phosphorylation of ribosomal protein S6 (dependent on mTOR activity),ribosomal protein S6,also affects this phosphorylation
same,phosphorylation of AKT,AKT,no effect
same,phosphorylation of eIF4E,eIF4E,no effect
same,caspase 3 activity (proteolysis fragments of PARP and α-spectrin),caspase 3,apoptotic effect
